Data on two compounds can be found in article PMC10945332, “Precision peptide theranostics: developing N- to C-terminus optimized theranostics targeting cholecystokinin-2 receptor” (Theranostics, 2024).

Read-outs that look alike come from different tables or passages of the source. Where a SMILES comes first, the peptide text is derived from it. [ ]: non-standard residue; d: D form. The star is where a group is joined. DOTA = O=C(O)CN1CCN(CC(=O)O)CCN(CC(=O)*)CCN(CC(=O)O)CC1; NMe1Nal = CN[C@@H](Cc1cccc2ccccc12)C(=O)O; NMeNle = CCCC[C@H](NC)C(=O)O; Sar = CNCC(=O)O

Series [1] concerns A431-CCK2R tumors. The conditions noted are these: A431-CCK2R/NSG mouse model; 1 hour post-injection; data shown for [177Lu]Lu-CP04; cited from earlier work.
The test system of a further series is AR42J xenografts. The conditions noted are these: AR42J xenografts; [68Ga]Ga labeled; 1 hour post-injection; cited from earlier work.
Another series relates to CCK2R. Details: method as in PMID 33826325. The conditions noted are these: peptide with gallium coordinated DOTA at the N-terminus; previously assessed; read-out: affinity for CCK2R; cited from earlier work.
In a further series the target is T1, human CCK2R (Homo sapiens, UniProt P32239).
T1 construct: stably transfected to over-express the human full-length CCK2R (A431-CCK2R); expressed in transfected cells
T1 sequence (P32239 1-447): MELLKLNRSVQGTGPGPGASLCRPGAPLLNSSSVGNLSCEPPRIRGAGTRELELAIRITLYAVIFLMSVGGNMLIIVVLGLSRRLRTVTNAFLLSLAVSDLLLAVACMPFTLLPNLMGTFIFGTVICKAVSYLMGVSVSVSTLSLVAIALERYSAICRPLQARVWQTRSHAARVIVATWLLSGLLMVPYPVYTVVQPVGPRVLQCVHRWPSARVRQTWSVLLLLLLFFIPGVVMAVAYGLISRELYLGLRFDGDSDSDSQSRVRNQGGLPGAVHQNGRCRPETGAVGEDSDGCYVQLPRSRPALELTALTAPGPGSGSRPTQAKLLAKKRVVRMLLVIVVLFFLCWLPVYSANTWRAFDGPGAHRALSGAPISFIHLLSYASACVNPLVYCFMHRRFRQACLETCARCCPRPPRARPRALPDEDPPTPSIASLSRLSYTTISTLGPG
Nature of the series: Competitive binding against [177Lu]Lu-DOTA-CP04 in A431-CCK2R cells. On the procedure: Materials and Methods: Biology […]
In Vitro CCK2R-Ligand Competitive Binding Assays
All CCK2R binding experiments were conducted using A431 (human epidermoid carcinoma) […]
cells stably transfected to over-express the human full-length CCK2R (A431-CCK2R) (gifted […]
by Dr. Elisabeth von Guggenberg, Medizinische Universität Innsbruck).[41] As a negative […]
control, A431 cells stably transfected with an empty vector were analysed simultaneously […]
(A431-EV). All A431 cells were maintained in DMEM (Gibco, Australia) media supplemented […]
with 10% foetal calf serum and 250 µg/mL G418 as described previously.[32]
The affinity of all peptides for the CCK2R was evaluated using competitive binding assays […]
Briefly, 48 hours before the experiment […]
cells were plated at a density of 300,000 cells per well in 12 well plates. On the day of the […]
experiment, linear peptides were diluted in DMEM supplemented with 1% foetal calf serum to […]
DOTA-CP04 was added to each dilution. Cells were washed twice in ice-cold binding buffer […]
(DMEM supplemented with 1% foetal calf serum) and resuspended in 1 mL of the pre-prepared […]
peptide mix before being incubated at room temperature for 1 hour. Post-incubation the media […]
was removed and kept for analysis (unbound fraction) and the cells were washed twice in ice- […]
cold PBS which was pooled with the unbound fraction. Finally, 1 M NaOH (150µL) was added […]
to the wells and allowed to incubate for 5 min before lysates were collected (bound fraction).
A small volume of lysate was kept aside to determine protein concentration using the Pierce® BCA protein assay kit (Thermo Fisher, Australia). All samples were analysed using the Perkin […]
normalised according to protein concentration. Half maximal inhibitory concentration (IC50) was determined using nonlinear regression calculated using Gr aphPad Prism Software (GraphPad Software, California, USA). […]

The subject of series [2] is A431-CCK2R tumors. Nature of the series: in vivo. The conditions noted are these: female, NSG, mouse, iv, 1 h. On the procedure:
(§1) In order to assess these promising ligands as potential theranostics, the library of [^68Ga]Ga-DOTA-peptides was evaluated using static small animal PET imaging and quantifying biodistribution studies. This study was performed to investigate tumor uptake as well as the accumulation of radioligands in other organs. Mice bearing A431-CCK2R tumors were imaged at 1- and 2 hours post tracer injection, and tracer biodistribution was evaluated at the 1 hour and 2.5 hour time points to quantify tumor uptake and retention. […]
(§2) Small Animal PET Imaging and Biodistribution Studies
(§3) Female NSG mice (age 11-14 weeks) were sourced from Animal Resources Centre, (Canning Vale, Western Australia) and were inoculated subcutaneously on the right flank with 1-3 x 106 […]
(§4) A431-CCK2R cells in PBS:Matrigel (1:1). […]
(§5) Mice were assigned to imaging and/or biodistribution groups (tumour volumes: 119-327 mm3).
(§6) The respective 68Ga labelled tracer (1.63–3.81 MBq, 170µL, 13.7–14.2 pmoles) containing vehicle solution (75µL, DMSO:Tween 80: water, 2:2:6 v/v/v) was then administered to mice intravenously via tail vein injection. Three mice were euthanized for biodistribution 1 hour post injection (n=3) and selected tissues were excised, weighed, and counted using a Capintec (Captus 4000e) gamma counter. Three mice were anaesthetised using 1.5% isoflurane and imaged at 1 hour (n=3) and 2 hours (n=3) with a G8 Small Animal PET/CT scanner (Perkin […]
(§7) Elmer/Sofie Biosciences). A 10 min static PET scan was acquired, followed immediately by a CT scan (Supplementary Data, pS51–S55). PET images were acquired using the G8 acquisition engine software and reconstructed using a 3D maximal likelihood and expectation maximization (ML-EM) algorithm. PET images were analysed using VivoQuant software, version 3.0 (inviCRO Imaging Services and Software) to quantify maximum standardised uptake value in regions of interest (SUVmax). Background regions for imaging experiments were calculated by quantitating mean standardised uptake value (SUVmean) of the abdomen and gut region. The region of interest was selected due to low uptake in abdomen/gut during imaging. After imaging the 2-hour time point, mice organs were harvested for biodistribution […]
(§8) For blocking CCK2R binding a solution of N-[(3R)-2,3-Dihydro-1-[2-(2-methylphenyl)-2-oxoethyl]-2-oxo-5-phenyl-1H-1,4-benzodiazepin-3-yl]-N′-(3-methylphenyl)-urea (YM022; Sigma Aldrich) was used. YM022 (75µL of a 1 mg/ml solution constituting DMSO:Tween 80: water, 2:2:6 v/v/v) was added to the respective 68Ga labelled tracer (1.41–3.61 MBq, 100 µL, 13.7–14.2 pmoles) and this mixture ([…]) was administered in three mice intravenously via tail vein injection and organs harvested at 1 hour post injection for biodistribution analysis, as above.
(§9) All animal experiments were performed with the approval of the Peter MacCallum Cancer Centre Animal Experimentation Ethics Committee and in accordance with the Australian code for the care and use of animals for scientific purposes, 8th Edition, 2013 (AEEC Approval

The next series can be described thus: in vivo. The conditions noted are these: female, NSG, mouse, iv, total radioactivity. The procedure:
as §1, §2, §3, §4, §5, §6, §7, §8, §9

The conditions of series [3]: mouse, in vivo. On the procedure:
as §1, §2, §3, §4, §5, §6, §7, §8, §9

Series [4] is classed as in vitro ADME, mouse. On the procedure:
Metabolic stability is an important determinant of the efficacy of peptide radiopharmaceuticals and their progression as promising theranostic candidates. In vitro, metabolic degradation through hepatic and renal enzymes can be assessed by utilizing liver and kidney tissue homogenates. Radiolabeled peptides [^68Ga]Ga-DOTA-GA4, and D-Ala substituted variants [^68Ga]Ga-DOTA-GA7, [^68Ga]Ga-DOTA-GA11-GA13 were incubated in liver and kidney mouse homogenates, in human serum at 37°C, and in HEPES buffer (pH 7.4) as a negative control. Following a time course experiment, the metabolites were analyzed using HPLC to quantify the % breakdown of the respective parent peptide. […]
To assess the stability of 68Ga radiolabeled peptides against enzymatic degradation, duplicate samples (750-900 pmol/mL, 2-5MBq) were incubated at 37 ℃ with pooled human serum, 15% […]
mouse kidney homogenate, 30% mouse liver homogenate or 20 mM HEPES, pH 7.3 (control).
Human blood was collected, and serum prepared using SSTII advance vacutainer tubes according to the manufacturer’s instructions (Becton Dickinson, New Jersey, USA). Mouse kidney and liver homogenates were prepared by washing the tissues in ice-cold HEPES buffer, pH 7.3 and placing them in pre-chilled tubes containing HEPES buffer and 2.38 mm metal beads (Mo-Bio Laboratories, Hilden, Germany). Tissues were homogenised using the PowerLyzer24 homogeniser (Qiagen, Hilden, Germany) according to the manufacturer’s instructions. 68Ga radiolabeled peptides were then incubated with the various lysates at 37 ℃ and samples were collected at 15, 30, 60 and 90 min. Reactions were terminated by addition of an equal volume of acetonitrile and centrifugation for 2 min at 15,000 rpm. Supernatants were diluted in water before being analysed by HPLC using a Kinetex C18 XB column (5µm

The format of series [5] is physicochemical. On the procedure:
Lipophilicity, expressed as the octanol-water partition coefficient, constitutes an important property in drug action, influencing both pharmacokinetic and pharmacodynamics processes. The distribution coefficient (LogD7.4) of [^68Ga]Ga-DOTA-peptides was determined by measuring radioactivity distribution in the aqueous phase (phosphate buffer pH7.4) and the organic phase (n-octanol). […]
To determine the distribution coefficient (logD 7.4), 68Ga radiolabeled peptides [68Ga]Ga-DOTA-GA4, [68Ga]Ga-DOTA-GA7, and [68Ga]Ga-DOTA-GA11–GA13 were diluted to approximately 20 pmol/mL in PBS (pH 7.4) and an equal volume of n-octanol was added. The mixture was vortexed vigorously for 10 cycles of 1 min at room temperature before being centrifuged for 6 min to separate the two phases. Equal volumes from each phase were aliquoted into individual counting tubes and analysed for 1 min using the Perkin Elmer 2480 Wizard2™ gamma counter (PerkinElmer, Massachusetts, USA). The distribution coefficient was calculated using the following equation LogD = […]. […]

Turning to `CSCC[C@H](NC(=O)[C@H](Cc1c[nH]c2ccccc12)NC(=O)CNC(=O)[C@H](Cc1ccc(O)cc1)NC(=O)[C@H](C)NC(=O)[C@@H](CCC(=O)O)NC(=O)[C@@H](CCC(=O)O)NC(=O)[C@@H](CCC(=O)O)NC(=O)[C@@H](CCC(=O)O)NC(=O)[C@@H](CCC(=O)O)NC(=O)[C@H](N)CCC(=O)O)C(=O)N[C@@H](CC(=O)O)C(=O)N[C@@H](Cc1ccccc1)C(N)=O` [CP04, reference compound], the Tumor uptake in the series with A431-CCK2R tumors [1] was 2.5 ± 0.3 [62] % ID/g; in the series with AR42J xenografts, 5.5 ± 0.8 [34] % ID/g. Moreover, the IC50 with CCK2R is 0.76 nM; on human CCK2R it was 2.33 nM. In addition, the “fold decrease in affinity for CCK2R without gallium coordinated DOTA at the N-terminus” value at human CCK2R (linear peptide vs its Ga-DOTA form) was “greater than 3 fold”.

As to `CCCC[C@@H](C(=O)N[C@@H](CC(=O)O)C(=O)N(C)[C@@H](Cc1cccc2ccccc12)C(N)=O)N(C)C(=O)[C@H](Cc1c[nH]c2ccccc12)NC(=O)CN(C)C(=O)[C@H](Cc1ccc(O)cc1)NC(=O)[C@H](C)NC(=O)[C@@H](CCC(=O)O)NC(=O)[C@@H](CCC(=O)O)NC(=O)[C@@H](CCC(=O)O)NC(=O)[C@@H](C)NC(=O)[C@@H](CCC(=O)O)NC(=O)[C@@H](CCC(=O)O)NC(=O)CN1CCN(CC(=O)O)CCN(CC(=O)O)CCN(CC(=O)O)CC1` [[^68Ga]Ga-DOTA-GA13, metal not drawn] ({DOTA}-[dE][dE][dA][dE][dE][dE]AY[Sar]W[NMeNle]D[NMe1Nal]-NH2), the SUVmax in the series on A431-CCK2R tumors [2] came out at 1.86. Moreover, the tissue to tissue ratio at 1 h in “in vivo” is 19.3 ± 1.49. The SUV at 2 h in “in vivo” (SUVmax) turned out to be 0.32 SUV. In addition, the tissue uptake at 1 h in series [3] (3 mg/kg, Uptake in A431-CCK2R Tumors, 1 hr Blocked) came out at 2.53 ± 0.17 %ID/g; in series [3] (Uptake in A431-CCK2R Tumors, 1 hr), 9.68 ± 1.02 %ID/g; in series [3] (Uptake in Organs: Blood), 0.83 ± 0.07 %ID/g; in series [3] (Uptake in Organs: Heart), 0.4 ± 0.03 %ID/g; in series [3] (Uptake in Organs: Kidneys), 12.3 ± 0.63 %ID/g; in series [3] (Uptake in Organs: Liver) it was 0.44 ± 0.03 %ID/g. In addition, the tissue uptake at 1 h in [3] (Uptake in Organs: Lungs) came to 0.85 ± 0.11 %ID/g; in series [3] (Uptake in Organs: Muscle), 0.16 ± 0.03 %ID/g; in [3] (Uptake in Organs: Spleen) it was 0.43 ± 0.13 %ID/g; in [3] (Uptake in Organs: Stomach), 1.81 ± 0.12 %ID/g. Further, the tissue uptake at 2.5 h in series [3] (Uptake in A431-CCK2R Tumors, 2.5 hr) was found to be 11.4 ± 0.17 %ID/g. In addition, in series [4], the “metabolites in kidney homogenates” value is recorded as “no observable metabolites detected”. For the same compound, in series [4], the “metabolites in liver homogenates” value was “no observable metabolites detected”. Besides, in [5], the logD was -2.59 ± 0.02.
